Test: relative permittivity at various frequencies (dimensionless); xn = mol fraction of the nth substance listed
Details: 101.3 kPa, Liquid, Frequency=1 MHz, Coaxial cylinder capacitor

CC#N [acetonitrile] + O
relative permittivity
Details | 288.15 K | 293.15 K | 298.15 K | 303.15 K | 308.15 K | 313.15 K | 318.15 K | 323.15 K | 328.15 K | 333.15 K
x1 = 0.0465 | 78.61 | 76.8 | 74.92 | 73.36 | 71.55 | 70.04 | 68.44 | 66.84 | 65.36 | 63.85
x1 = 0.0988 | 73.85 | 72.05 | 70.49 | 68.85 | 67.33 | 65.9 | 64.34 | 62.99 | 61.47 | 60.07
x1 = 0.158 | 68.68 | 67.21 | 65.57 | 64.22 | 62.78 | 61.26 | 59.91 | 58.6 | 57.29 | 55.97
x1 = 0.226 | 63.44 | 62 | 60.61 | 59.3 | 58.07 | 56.79 | 55.44 | 54.13 | 53.02 | 51.79
x1 = 0.305 | 58.11 | 56.92 | 55.69 | 54.58 | 53.43 | 52.28 | 51.18 | 49.99 | 48.92 | 47.94
x1 = 0.397 | 53.1 | 52.2 | 51.05 | 50.07 | 48.88 | 47.98 | 46.87 | 45.89 | 44.9 | 43.92
x1 = 0.506 | 48.72 | 47.77 | 46.83 | 45.89 | 44.99 | 44.12 | 43.18 | 42.28 | 41.38 | 40.52
x1 = 0.637 | 44.82 | 43.92 | 43.1 | 42.2 | 41.38 | 40.64 | 39.74 | 38.84 | 37.97 | 37.15
x1 = 0.798 | 41.05 | 40.39 | 39.41 | 38.67 | 37.85 | 37.11 | 36.29 | 35.39 | 34.82 | 34.08
x1 = 1 | 37.52 | 36.62 | 35.88 | 35.15 | 34.45 | 33.75 | 33.01 | 32.36 | 31.62 | 31.05

— the NIST ThermoML archive (doi:10.1021/je700055p)
